Reference: patent publication US20040186021A1, “Substituted benzo-nitro-heterocycles” (priority 2001, published 2004)

Columns and labels:
[1] = logP determination by HPLC (reversed-phase column C 18), EC Directive 79/831 Annex V.A8; type: physicochemical; conditions: for chromatographic logP: reversed-phase HPLC column (C 18), at pH=2; for logP a): acetonitrile, 43° C.
Description: LogP values given in Table 1 were determined in accordance with EC Directive 79/831 Annex V.A8 by HPLC (High Performance Liquid Chromatography) using a reversed-phase column (C 18). Temperature: 43° C. (a) Mobile phases for the determination in the acidic range: 0.1% aqueous phosphoric acid, acetonitrile; linear gradient from 10% acetonitrile to 90% acetonitrile—the corresponding measurement results in Table 1 are marked ^a). (b) Mobile phases for the determination in the neutral range: 0.01 molar aqueous phosphate buffer solution, acetonitrile; linear gradient from 10% acetonitrile to 90% acetonitrile—the corresponding measurement results in Table 1 are marked ^b). Calibration was carried out using unbranched alkan-2-ones (having 3 to 16 carbon atoms) with known logP values (determination of the logP values by the retention times using linear interpolation between two successive alkanones).

[2] = tested on: weeds; assay: Pre-emergence test (Example A); type: in vivo; conditions: soil sprayed 24 hours after sowing, rated after three weeks
Description: Pre-Emergence Test [table] To produce a suitable preparation of active compound, one part by weight of active compound is mixed with the stated amount of solvent, the stated amount of emulsifier is added and the concentrate is diluted with water to the desired concentration. Seeds of the test plants are sown in normal soil. After 24 hours, the soil is sprayed with the preparation of active compounds such that the particular amount of active compound desired is applied per unit area. The concentration of active compound in the spray liquor is chosen such that the particular amount of active compound desired is applied in 1000 litres of water per hectare. After three weeks, the degree of damage to the plants is rated in % damage in comparison to the development of untreated control. The figures denote: 0%=no effect (like untreated control) 100%=total destruction

[3] = tested on: weeds; assay: Post-emergence test (Example B); type: in vivo; conditions: test plants of 5-15 cm sprayed, rated after three weeks
Description: To produce a suitable preparation of active compound, one part by weight of active compound is mixed with the stated amount of solvent, the stated amount of emulsifier is added and the concentrate is diluted with water to the desired concentration.
Test plants of a height of 5-15 cm are sprayed with the preparation of active compounds such that the particular amounts of active compounds desired are applied per unit area. The concentration of the spray liquor is chosen such that the particular amounts of active compounds desired are applied in 1000 l of water/ha.
After three weeks, the degree of damage to the plants is rated in % damage in comparison to the development of the untreated control.
0%=no effect (like untreated control)

[4] = Table 1; a) acidic range: 0.1% aqueous phosphoric acid
[5] = Table 2, compounds of formula (II); a) acidic range: 0.1% aqueous phosphoric acid

Compound `O=c1[nH]c2cc(-n3c(=O)cc(C(F)(F)F)[nH]c3=O)c(F)cc2s1` [3-(6-fluoro-2,3-dihydro-2-oxo-1,3-benzothiazol-5-yl)-6-trifluoromethyl-2,4(1H,3H)-pyrimidinedione] has a chromatographic logP [1] of 1.48.
For `CCOC(=O)CN1C(=O)COc2ccc(-n3c(=O)cc(C(F)(F)F)n(N)c3=O)cc21` [Example 1, ethyl 6-(3-amino-3,6-dihydro-2,6-dioxo-4-trifluoromethyl-1 (2H)-pyrimidynyl)-2,3-dihydro-3-oxo-4H-1,4-benzoxazine-4-acetate], the “action against weeds (degree of damage to the plants)” value (shortened to “action against weeds”) [2] was “very strong action against weeds”, the chromatographic logP [1] was 1.9 and the “action against weeds” value [3] was “very strong action against weeds”.
Work on `CCOC(=O)n1c(=O)sc2cc(F)c(-n3c(=O)cc(C(F)(F)F)n(N)c3=O)cc21` [Example 2, ethyl 5-(3-amino-3,6-dihydro-2,6-dioxo-4-trifluoromethyl-1(2H)-pyrimidynyl)-6-fluoro-2-oxo-3(2H)-benzothiazole carboxylate] yielded a chromatographic logP [1] of 2.44.
With `CS(=O)(=O)n1c(=O)sc2cc(F)c(-n3c(=O)cc(C(F)(F)F)n(N)c3=O)cc21` [Example 3, 1-amino-3-(6-fluoro-2,3-dihydro-3-methylsulphonyl-2-oxo-5-benzothiazolyl)-6-trifluoromethyl-2,4(1H,3H)-pyrimidinedione] the chromatographic logP [1] was 2.16.
In the case of `N#CCn1c(=O)sc2cc(F)c(-n3c(=O)cc(C(F)(F)F)n(N)c3=O)cc21` [Example 4], the “logP a)” value [1, 4] is reported as 1.97^a).
For `N#CCN1C(=O)COc2cc(F)c(-n3c(=O)cc(C(F)(F)F)n(N)c3=O)cc21` [Example 5], the “action against weeds” value [2] was “very strong action against weeds”, the “logP a)” value [1, 4] was 1.83^a) and the “action against weeds” value [3] was “very strong action against weeds”.
With `N#CCN1C(=O)COc2ccc(-n3c(=O)cc(C(F)(F)F)n(N)c3=O)cc21` [Example 6] the “action against weeds” value [2] was “very strong action against weeds”, the “logP a)” value [1, 4] was 1.57^a) and the “action against weeds” value [3] was “very strong action against weeds”.
With `COC(=O)CN1C(=O)COc2cc(F)c(-n3c(=O)cc(C(F)(F)F)n(N)c3=O)cc21` [Example 7] the “action against weeds” value [2] was “very strong action against weeds”, the “logP a)” value [1, 4] was 1.90^a) and the “action against weeds” value [3] was “very strong action against weeds”.
For `CCOC(=O)CN1C(=O)COc2cc(F)c(-n3c(=O)cc(C(F)(F)F)n(N)c3=O)cc21` [Example 8], the “action against weeds” value [2] was “very strong action against weeds”, the “logP a)” value [1, 4] was 2.14^a) and the “action against weeds” value [3] was “very strong action against weeds”.
With `CC(C)(C)OC(=O)CN1C(=O)COc2cc(F)c(-n3c(=O)cc(C(F)(F)F)n(N)c3=O)cc21` [Example 9] the “action against weeds” value [2] was “very strong action against weeds”, the “logP a)” value [1, 4] was 2.60^a) and the “action against weeds” value [3] was “very strong action against weeds”.
With `CC(C)OC(=O)CN1C(=O)COc2cc(F)c(-n3c(=O)cc(C(F)(F)F)n(N)c3=O)cc21` [Example 10] the “action against weeds” value [2] was “very strong action against weeds”, the “logP a)” value [1, 4] was 2.38^a) and the “action against weeds” value [3] was “very strong action against weeds”.
In the case of `COC(=O)CN1C(=O)COc2ccc(-n3c(=O)cc(C(F)(F)F)n(N)c3=O)cc21` [Example 11], the “action against weeds” value [2] is reported as “very strong action against weeds” and the “action against weeds” value [3] is reported as “very strong action against weeds”.
With `CC(C)OC(=O)CN1C(=O)COc2ccc(-n3c(=O)cc(C(F)(F)F)n(N)c3=O)cc21` [Example 12] the “action against weeds” value [2] was “very strong action against weeds”, the “logP a)” value [1, 4] was 2.14^a) and the “action against weeds” value [3] was “very strong action against weeds”.
For `CC(C)(C)OC(=O)CN1C(=O)COc2ccc(-n3c(=O)cc(C(F)(F)F)n(N)c3=O)cc21` [Example 13], the “logP a)” value [1, 4] was 2.37^a).
With `CC(=O)n1c(=O)sc2cc(F)c(-n3c(=O)cc(C(F)(F)F)n(N)c3=O)cc21` [Example 14] the “logP a)” value [1, 4] was 2.36^a).
In the case of `COC(=O)C=C(CCl)n1c(=O)sc2cc(F)c(-n3c(=O)cc(C(F)(F)F)n(N)c3=O)cc21` [Example 22], the “logP a)” value [1, 4] is reported as 2.46^a).
In the case of `CC(C)COC(=O)n1c(=O)sc2cc(F)c(-n3c(=O)cc(C(F)(F)F)n(N)c3=O)cc21` [Example 23], the “logP a)” value [1, 4] is reported as 3.17^a).
For `CCOC(=O)C=C(n1c(=O)sc2cc(F)c(-n3c(=O)cc(C(F)(F)F)n(N)c3=O)cc21)C(F)(F)F` [Example 24], the “logP a)” value [1, 4] was 2.98^a).
In the case of `CCOC(=O)C=CCn1c(=O)sc2cc(F)c(-n3c(=O)cc(C(F)(F)F)n(N)c3=O)cc21` [Example 25], the “logP a)” value [1, 4] is reported as 2.51^a).
With `N#Cn1c(=O)sc2cc(F)c(-n3c(=O)cc(C(F)(F)F)n(N)c3=O)cc21` [Example 30] the “logP a)” value [1, 4] was 2.19^a).
Compound `Nn1c(C(F)(F)F)cc(=O)n(-c2cc3[nH]c(=O)sc3cc2F)c1=O` [II-1, 1-amino-3-(6-fluoro-2,3-dihydro-2-oxo-1,3-benzothiazol-5-yl)-6-trifluoromethyl-2,4(1H,3H)-pyrimidinedione] has a chromatographic logP [1] of 1.66.
For `Nn1c(C(F)(F)F)cc(=O)n(-c2ccc3c(c2)NC(=O)CO3)c1=O` [II-2], the “logP a)” value [1, 5] was “logP = 1.22^a)”.
With `Nn1c(C(F)(F)F)cc(=O)n(-c2cc3c(cc2F)OCC(=O)N3)c1=O` [II-3] the “logP a)” value [1, 5] was “logP = 1.57^a)”.
